Measured values from paper PMC3837394 (Advances in Protein Chemistry and Structural Biology, 2012).

Columns and labels:
Experiment in all cases: colorimetric ELISA-like DNMT activity assay
Assay type in all cases: biochemical
full-length human DNMT1 [1] = target: T1, full-length human DNMT1 (Homo sapiens, UniProt P26358)
full-length human DNMT1 [2] = target: T1, full-length human DNMT1; details: read-out: % inhibition at 100 μM
murine Dnmt3a = murine Dnmt3a (Mus musculus, UniProt O88508)

T1 sequence (P26358 whole entry): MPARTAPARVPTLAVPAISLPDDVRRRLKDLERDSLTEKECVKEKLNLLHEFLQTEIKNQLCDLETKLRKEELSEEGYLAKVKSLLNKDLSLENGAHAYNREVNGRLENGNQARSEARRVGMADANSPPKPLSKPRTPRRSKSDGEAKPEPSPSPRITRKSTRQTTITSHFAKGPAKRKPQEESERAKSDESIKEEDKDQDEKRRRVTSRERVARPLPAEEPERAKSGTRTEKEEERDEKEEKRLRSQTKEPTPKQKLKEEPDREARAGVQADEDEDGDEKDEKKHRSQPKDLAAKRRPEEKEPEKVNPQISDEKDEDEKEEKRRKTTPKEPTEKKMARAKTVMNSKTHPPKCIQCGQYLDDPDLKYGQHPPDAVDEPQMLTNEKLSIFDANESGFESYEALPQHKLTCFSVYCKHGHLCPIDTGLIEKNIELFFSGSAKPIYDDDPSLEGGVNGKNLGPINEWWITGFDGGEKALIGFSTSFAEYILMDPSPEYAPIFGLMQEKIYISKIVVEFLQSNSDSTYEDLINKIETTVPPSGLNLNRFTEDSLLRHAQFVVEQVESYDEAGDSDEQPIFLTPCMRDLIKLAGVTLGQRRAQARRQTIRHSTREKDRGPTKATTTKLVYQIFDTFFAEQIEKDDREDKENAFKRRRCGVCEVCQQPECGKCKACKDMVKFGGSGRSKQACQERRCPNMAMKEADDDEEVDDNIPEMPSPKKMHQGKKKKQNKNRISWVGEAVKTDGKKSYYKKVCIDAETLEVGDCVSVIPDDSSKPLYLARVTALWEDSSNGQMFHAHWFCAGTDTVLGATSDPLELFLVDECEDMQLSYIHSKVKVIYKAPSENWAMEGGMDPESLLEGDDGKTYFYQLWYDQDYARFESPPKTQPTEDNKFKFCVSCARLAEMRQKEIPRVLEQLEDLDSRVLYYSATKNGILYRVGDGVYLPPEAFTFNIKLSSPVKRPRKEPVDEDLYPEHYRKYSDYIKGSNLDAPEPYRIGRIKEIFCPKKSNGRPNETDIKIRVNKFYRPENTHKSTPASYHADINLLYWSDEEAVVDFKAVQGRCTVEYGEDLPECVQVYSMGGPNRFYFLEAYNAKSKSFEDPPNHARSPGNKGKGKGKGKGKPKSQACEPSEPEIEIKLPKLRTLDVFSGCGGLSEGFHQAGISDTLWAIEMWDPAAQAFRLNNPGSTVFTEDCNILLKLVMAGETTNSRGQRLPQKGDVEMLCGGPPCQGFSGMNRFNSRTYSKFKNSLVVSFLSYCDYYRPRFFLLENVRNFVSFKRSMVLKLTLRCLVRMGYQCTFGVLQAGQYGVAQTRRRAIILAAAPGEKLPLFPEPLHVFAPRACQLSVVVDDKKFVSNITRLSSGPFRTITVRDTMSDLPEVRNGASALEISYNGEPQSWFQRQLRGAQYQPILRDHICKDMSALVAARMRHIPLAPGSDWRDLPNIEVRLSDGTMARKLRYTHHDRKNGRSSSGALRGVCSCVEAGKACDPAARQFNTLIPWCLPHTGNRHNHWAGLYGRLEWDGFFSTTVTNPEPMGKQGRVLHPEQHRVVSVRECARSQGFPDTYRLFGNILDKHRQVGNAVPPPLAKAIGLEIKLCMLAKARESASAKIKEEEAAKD

IC50 (full-length human DNMT1 [1]) [nM] | inhibition at 100 µM (full-length human DNMT1 [2]) [%] | IC50 (murine Dnmt3a) [nM] | Structure (SMILES)
700 | – | – | O=C(O[C@@H]1Cc2c(O)cc(O)cc2O[C@@H]1c1cc(O)c(O)c(O)c1)c1cc(O)c(O)c(O)c1 [EGCG]
– | 11 | – | O=C(O)[C@H](Cc1c[nH]c2ccccc12)N1C(=O)c2ccccc2C1=O [RG108]
680 | – | 1400 | O=C(O)C1=CC(=C(c2ccc(O)c(C(=O)O)c2)c2ccc(O)c(C(=O)O)c2)C=CC1=O [aurintricarboxylic acid]
